Results reported in ChEMBL document CHEMBL3421542, “Pure Diastereomers of a Tranylcypromine-Based LSD1 Inhibitor: Enzyme Selectivity and In-Cell Studies” (ACS Med Chem Lett, 2015).

What was measured:
[1] = Inhibition of colony formation in mouse acute promyelocytic leukemic cell at 0.25 uM after 7 days by colony forming unit assay; assay type: functional; conditions: 168 h
[2] = molecular target: T1, Amine oxidase [flavin-containing] B (Homo sapiens, UniProt P27338); assay: Inhibition of human recombinant MAOB expressed in Pichia pastoris incubated for 15 mins prior to substrate addition measured after 30 mins by luminescence assay
T1 sequence (P27338 whole entry): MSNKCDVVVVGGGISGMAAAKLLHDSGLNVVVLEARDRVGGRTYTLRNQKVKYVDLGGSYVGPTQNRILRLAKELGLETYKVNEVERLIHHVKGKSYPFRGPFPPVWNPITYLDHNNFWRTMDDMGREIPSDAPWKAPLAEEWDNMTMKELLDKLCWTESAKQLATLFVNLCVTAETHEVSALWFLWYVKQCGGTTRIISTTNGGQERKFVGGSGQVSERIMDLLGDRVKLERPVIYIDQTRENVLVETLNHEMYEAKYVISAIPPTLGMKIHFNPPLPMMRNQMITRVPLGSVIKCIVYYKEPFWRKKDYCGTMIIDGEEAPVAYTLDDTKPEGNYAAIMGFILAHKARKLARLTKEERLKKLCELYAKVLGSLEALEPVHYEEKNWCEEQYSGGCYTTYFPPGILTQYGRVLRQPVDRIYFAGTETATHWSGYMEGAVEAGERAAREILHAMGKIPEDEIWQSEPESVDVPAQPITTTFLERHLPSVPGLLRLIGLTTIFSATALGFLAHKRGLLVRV

[3] = molecular target: T2, MAO-B (amine oxidase [flavin-containing] B) (Homo sapiens, UniProt P27338); assay: Inhibition of human recombinant MAOB expressed in Pichia pastoris at 100 uM incubated for 15 mins prior to substrate addition measured after 30 mins by luminescence assay
T2 sequence (P27338 whole entry): T1 sequence (P27338 whole entry)

[4] = Induction of cell differentiation in mouse acute promyelocytic leukemic cells; assay type: functional
[5] = Induction of cell differentiation in human NB4 cells assessed as upregulation of CD11B expression; assay type: functional, cell-based; conditions: NB-4

SMILES | inhibition at 0.25 µM [1] | IC50 [2] | inhibition at 0.5 h, 100 µM [3] | Activity [4] | Activity [5]
N[C@@H]1C[C@H]1c1ccc(NC(=O)[C@H](Cc2ccccc2)NC(=O)OCc2ccccc2)cc1 | 59.2% | 32 µM | – | – | –
N[C@@H]1C[C@H]1c1ccc(NC(=O)[C@@H](Cc2ccccc2)NC(=O)OCc2ccccc2)cc1 | 59.6% | – | 33% | – | –
N[C@H]1C[C@@H]1c1ccc(NC(=O)[C@@H](Cc2ccccc2)NC(=O)OCc2ccccc2)cc1 | – | – | 14% | – | –
Cl.NC1CC1c1ccc(NC(=O)C(Cc2ccccc2)NC(=O)OCc2ccccc2)cc1 (mixture of isomers) | 36.8% | – | 40% | 77.9% | 77.9%
N[C@H]1C[C@@H]1c1ccc(NC(=O)[C@H](Cc2ccccc2)NC(=O)OCc2ccccc2)cc1 | – | 42.6 µM | – | – | –
